Experimental data published in US12029748B2, “Synergistic composition for maintenance of healthy balance of microflora” (KIMBERLY-CLARK WORLDWIDE, INC., priority 2017, dated 2024).
Where a SMILES comes first, the peptide text is derived from it.

Columns and labels:
[1] = tested on: L. crispatus and E. coli; assay: Therapeutic Effect Protocol: L. crispatus / E. coli co-culture, ratio after 36 hours; assay type: cell-based, Lactobacillus crispatus; E. coli; settings: for Therapeutic Efficacy Results (Lactobacillus/E. coli) 0.10%: nitrogen compound 0.10 wt/vol % with 1.0 wt/vol % α methyl-D glucoside (10:1); for Therapeutic Efficacy Results (Lactobacillus/E. coli) 0.10% / Therapeutic Efficacy Results (Lactobacillus/E. coli) 0.50% / Therapeutic Efficacy Results (Lactobacillus/E. coli) 1.00%: 36 hours anaerobic co-culture, 37° C.; for Therapeutic Efficacy Results (Lactobacillus/E. coli) 0.50%: nitrogen compound 0.50 wt/vol % with 1.0 wt/vol % α methyl-D glucoside (2:1); for Therapeutic Efficacy Results (Lactobacillus/E. coli) 1.00%: nitrogen compound 1.00 wt/vol % with 1.0 wt/vol % α methyl-D glucoside (1:1); for Therapeutic effect when ratio α methyl-D glucoside : nitrogen compound is at least about 2:1, but not at 1:1: ratio at least about 2:1, not 1:1; for Therapeutic effect at ratio 2:1 and 10:1, but not at 1:1: ratios 2:1 and 10:1, not 1:1
Procedure: As used herein the term “therapeutic effect” refers to the ability of the compositions and formulations of the present invention to stimulate the growth of Lactobacillus relative E. coli measured according to the Therapeutic Effect Protocol described below. Generally, therapeutic effect is expressed as a ratio of Lactobacillus to E. coli and is desirably greater than about 2, more preferably greater than about 20 and more desirably greater than about 100.
The data in Table 1 was tested according to the Therapeutic Effect Protocol as described further herein. The nitrogen compounds were tested for their therapeutic efficacy at three different concentrations when combined with α methyl-D glucoside (1% wt/vol %). The concentrations of the nitrogen containing compounds that were tested were 1% wt/vol %, 0.5% wt/vol %, and 0.1% wt/vol %.
Colonies of L. crispatus and E. coli were prepared as follows. A colony of L. crispatus was transferred to 7 ml de Man, Rogosa & Sharpe (MRS) broth and incubated anaerobically (using BD GasPak EZ anaerobe container system with indicator) at 37° C. without shaking for 18-20 hours. A colony of E. coli was transferred to 5 ml Tryptic Soy Broth (TSB) and incubated aerobically (shaking at 100 rpm) at 37° C. for 18-20 hours.
Colonies were then inoculated as follows. Bacterial cultures were gently vortexed and 1 mL of each culture was transferred to a corresponding 2.0 mL micro-centrifuge tube and then centrifuged for two minutes at 14,500 rpm. The cultural supernatant was removed and the cell pellet was re-suspended in 1 mL of 0.95% (wt/vol %) saline. […] For L. crispatus, the pellet was re-suspended in 1 mL of 0.95% saline to achieve ˜10^7-10^8 cfu/mL. For E. coli, the pellet was re-suspended in 1 mL of 0.95% saline to achieve ˜10^8-10^9 cfu/mL.
Media were prepared as follows.
(§1) All of the ingredients in Table 2 were combined and the pH was adjusted to 6.5. […] To evaluate the effect of various nitrogen containing therapeutic agents on the growth of bacteria, the LAPT-g media, prepared as described above, was supplemented with various nitrogen containing compound therapeutic agents to a final test concentration between 0.1 and 1.0%. As initial screening measures, solubility and initial pH of each composition were checked. If a specific composition was insoluble (as detected by visual indication of precipitates or turbidity), then no further therapeutic efficacy testing was undertaken on that composition. Additionally, if the initial pH of the composition was below 5.5 (“Low”) or was above 6.5 (“High”), then no further therapeutic efficacy testing was undertaken on that composition.
Five milliliters (5 mL) of each medium was transferred to a test tube in duplicates for subsequent inoculation. A master mixture of L. crispatus and E. coli, prepared as described above, was prepared in 1,000:1 ratio. Each (5 ml) test tube was inoculated with the master mixture to give 10^5-10^6 total CFU L. crispatus and 100-1,000 total CFU E. coli per tube.
To establish a negative control, one tube was vortexed and 100 μL was removed to determine the initial cell concentrations by serial dilutions and plating (2 plates per dilution). L. crispatus is selected on MRS agar plates incubated anaerobically at 37° C. for two days. E. coli is selected on TSA plates incubated aerobically at 37° C. for one day. The co-cultures were incubated in an anaerobic container with BD GasPaks at 37° C. for 36 hours.
The effect of the α methyl-D glucoside and the nitrogen containing compound therapeutic agents on the ratio of L. crispatus to E. coli was measured 36 hours after inoculation and a final pH of the test solutions was recorded. The co-culture tube was vortexed and 100 μL was removed to determine the final cell concentrations by serial dilutions and plating (2 plates per dilution). L. crispatus is selected on MRS agar plates incubated anaerobically at 37° C. for two days.

[2] = Initial pH screening of the composition; assay type: physicochemical; settings: for I pH (initial pH), 0.10%: nitrogen compound 0.10 wt/vol % with 1.0 wt/vol % α methyl-D glucoside in medium; for I pH (initial pH), 0.50%: nitrogen compound 0.50 wt/vol % with 1.0 wt/vol % α methyl-D glucoside in medium; for I pH (initial pH), 1.00%: nitrogen compound 1.00 wt/vol % with 1.0 wt/vol % α methyl-D glucoside in medium
From the text: Each composition in Table 1 went through initial screening measures of solubility and initial pH (“I pH”). […] When a specific concentration of a nitrogen containing compound was insoluble, the initial and final pH (“F pH”) of the combined composition was not measured and accordingly are each marked as “NM.” Additionally, initial pH of the composition was checked as a screening measure. The initial pH was marked as either Low (“L”), High (“H”), or Pass (“P”). A Low initial pH corresponds to an initial pH being less than 5.5, a High initial pH corresponds to an initial pH being greater than 6.5, and a Pass initial pH corresponds to the pH being at or between 5.5-6.5. […] As part of the Therapeutic Effect Protocol, a final pH was also measured after the compositions that were tested against the Lactobacillus and E. coli.
as §1

SMILES | Therapeutic Efficacy Results (Lactobacillus/E. coli) 0.10% [1] | Therapeutic Efficacy Results (Lactobacillus/E. coli) 0.50% [1] | Therapeutic Efficacy Results (Lactobacillus/E. coli) 1.00% [1] | Therapeutic effect when ratio α methyl-D glucoside : nitrogen compound is at least about 2:1, but not at 1:1 ([1]; with α methyl-D glucoside) | Therapeutic effect at ratio 2:1 and 10:1, but not at 1:1 ([1]; with α methyl-D glucoside) | I pH (initial pH), 0.10% [2] | I pH (initial pH), 0.50% [2] | I pH (initial pH), 1.00% [2] | Therapeutic effect (ratio of Lactobacillus to E. coli greater than 2) at each concentration tested ([1]; with α methyl-D glucoside, nitrogen compound 1 wt/vol %, 0.5 wt/vol % and 0.1 wt/vol %) | Therapeutic effect when ratio α methyl-D glucoside : nitrogen compound is less than 2:1 (1:1) ([1]; with α methyl-D glucoside, ratio 1:1)
CSCC[C@H](NC(=O)CN)C(=O)O [Gly-Met] | 238 | >2343.75 | 0.81 | provided a therapeutic effect | provided a therapeutic effect | P (a Pass initial pH corresponds to the pH being at or between 5.5-6.5) | P (a Pass initial pH corresponds to the pH being at or between 5.5-6.5) | P (a Pass initial pH corresponds to the pH being at or between 5.5-6.5) |  | 
C[C@H](NC(=O)CN)C(=O)O [Glycyl-Alanine] (H-Gly-Ala-OH) | 0.803 | 220 | 1.49 | provided a therapeutic effect |  | P (a Pass initial pH corresponds to the pH being at or between 5.5-6.5) | P (a Pass initial pH corresponds to the pH being at or between 5.5-6.5) | P (a Pass initial pH corresponds to the pH being at or between 5.5-6.5) |  | 
C[C@H](N)C(=O)N[C@H](C(=O)O)[C@@H](C)O [H-Ala-Thr-OH] (H-Ala-Thr-OH) | 212 | >103 | 1.64 | provided a therapeutic effect | provided a therapeutic effect | P (a Pass initial pH corresponds to the pH being at or between 5.5-6.5) | P (a Pass initial pH corresponds to the pH being at or between 5.5-6.5) | P (a Pass initial pH corresponds to the pH being at or between 5.5-6.5) |  | 
NO [Hydroxylamine] | 0.20 |  |  |  |  | H (a High initial pH corresponds to an initial pH being greater than 6.5) | H (a High initial pH corresponds to an initial pH being greater than 6.5) | H (a High initial pH corresponds to an initial pH being greater than 6.5) |  | 
OC[C@H]1O[C@@H](n2cnc3c(O)ncnc32)[C@H](O)[C@@H]1O [Inosine] | 2.75E+04 | 226 | 0.45 | provided a therapeutic effect | provided a therapeutic effect | P (a Pass initial pH corresponds to the pH being at or between 5.5-6.5) | P (a Pass initial pH corresponds to the pH being at or between 5.5-6.5) | P (a Pass initial pH corresponds to the pH being at or between 5.5-6.5) |  | 
C[C@H](N)C(=O)O [L-Alanine] | 1.5 | 1.52 | 1.3 |  |  | P (a Pass initial pH corresponds to the pH being at or between 5.5-6.5) | P (a Pass initial pH corresponds to the pH being at or between 5.5-6.5) | P (a Pass initial pH corresponds to the pH being at or between 5.5-6.5) |  | 
N[C@@H](CS)C(=O)O [L-Cysteine] | >299 | 28.38 | 10.44 |  |  | P (a Pass initial pH corresponds to the pH being at or between 5.5-6.5) | P (a Pass initial pH corresponds to the pH being at or between 5.5-6.5) | P (a Pass initial pH corresponds to the pH being at or between 5.5-6.5) | provided a therapeutic effect | provided a therapeutic effect
NC(=O)CC[C@H](N)C(=O)O [L-Glutamine] | >161 | 1.28 | 0.53 | provided a therapeutic effect |  | P (a Pass initial pH corresponds to the pH being at or between 5.5-6.5) | P (a Pass initial pH corresponds to the pH being at or between 5.5-6.5) | P (a Pass initial pH corresponds to the pH being at or between 5.5-6.5) |  | 
N[C@@H](CCO)C(=O)O [L-Homoserine] | >750 | 0.66 | 0.33 | provided a therapeutic effect |  | P (a Pass initial pH corresponds to the pH being at or between 5.5-6.5) | P (a Pass initial pH corresponds to the pH being at or between 5.5-6.5) | P (a Pass initial pH corresponds to the pH being at or between 5.5-6.5) |  | 
NCCCC[C@H](N)C(=O)O [L-Lysine] | >141 | 1.93 | 0.42 | provided a therapeutic effect |  | P (a Pass initial pH corresponds to the pH being at or between 5.5-6.5) | P (a Pass initial pH corresponds to the pH being at or between 5.5-6.5) | P (a Pass initial pH corresponds to the pH being at or between 5.5-6.5) |  | 
CSCC[C@H](N)C(=O)O [L-Methionine] | >1.71E+05 | 0.78 | 0.75 | provided a therapeutic effect |  | P (a Pass initial pH corresponds to the pH being at or between 5.5-6.5) | P (a Pass initial pH corresponds to the pH being at or between 5.5-6.5) | P (a Pass initial pH corresponds to the pH being at or between 5.5-6.5) |  | 
